This note sets out measurements from patent US4487768A, “Cephem compounds” (Fujisawa Pharmaceutical Co., Ltd., priority 1982, dated 1984).

The nature of data set [1]: Urinary excretion in rats after oral administration. The format is in vivo. To be noted: rat, oral 100 mg/kg, urine 0 to 6 and 6 to 24 hours, bioassay, read-out: Urinary recovery in 24 hours (%).
Procedure: Urine of rats was collected with a urine collector at 0 to 6, and 6 to 24 hours after oral administration of 100 mg/kg of the test antibiotic. The antibiotic levels in the urine samples were bioassayed with the standard solution prepared with M/15 phosphate buffer (pH 7.0) and the urinary recovery in 24 hours was calculated.
Another data set relates to Proteus mirabilis 18. Put plainly: Minimal inhibitory concentration, two-fold agar-plate dilution method. To be noted: HI-agar, 37° C., 20 hours, 10^8 viable cells per ml. The format is cell-based. The method, then: (§1) (A) Minimal inhibitory concentration 1 Test Method In vitro antibacterial activity was determined by the two-fold agar-plate dilution method as described below. One loopful of an overnight culture of each test strain in Trypticase-soy broth (10^8 viable cells per ml) was streaked on heart infusion agar (HI-agar) containing graded concentrations of representative test compound, and the minimal inhibitory concentration (MIC) was expressed in tems of μg/ml after incubation at 37° C. for 20 hours.

Another data set relates to Proteus vulgaris 2. Described as above. To be noted: HI-agar, 37° C., 20 hours, 10^8 viable cells per ml. The format is cell-based. The method, then: as §1
Another data set in a line: in vivo. To be noted: rat, po, 100 mg/kg.

The structures appear in SMILES notation. Values after ≈ are worked out from the molar mass of the structure shown.

Procedure for in vivo: Rats anesthetized with pentobarbital were fixed in supine position, and a polyethylene cannula was inserted into the bile duct. Bile samples were collected at 0 to 3, 3 to 6, and 6 to 24 hours after oral administration of 100 mg/kg of the test antibiotic. The antibiotic levels in the bile samples were bioassayed with the standard solutions prepared with M/15 phosphate buffer (pH 7.0) and the biliary recovery in 24 hours were calculated.

The MIC is the least concentration at which growth counts as inhibited. A higher MIC goes with a need for much substance. Consider `[N-]=[N+]=NCC1=C(C(=O)O)N2C(=O)C(NC(=O)/C(=N\OCC(=O)O)c3nsc(N)n3)C2SC1` (stereo not drawn) [Test Compound (1), 7-[2-Carboxymethoxyimino-2-(5-amino-1,2,4-thiadiazol-3-yl)acetamido]-3-azidomethyl-3-cephem-4-carboxylic acid (syn isomer)], for which the dose excreted at 24 h in data set [1] is 26.6%; in “in vivo”, 4.72%. Besides, the MIC amounted to 0.05 µg/mL (≈ 0.103 µM) with Proteus mirabilis 18 and 0.1 µg/mL (≈ 0.207 µM) against Proteus vulgaris 2.
